Broadly, the IC50 is the concentration that inhibits the measured activity by half.

Assay [1] addresses T1, Fructose-1,6-bisphosphatase 1 (Homo sapiens, UniProt P09467).
T1 sequence (P09467 whole entry): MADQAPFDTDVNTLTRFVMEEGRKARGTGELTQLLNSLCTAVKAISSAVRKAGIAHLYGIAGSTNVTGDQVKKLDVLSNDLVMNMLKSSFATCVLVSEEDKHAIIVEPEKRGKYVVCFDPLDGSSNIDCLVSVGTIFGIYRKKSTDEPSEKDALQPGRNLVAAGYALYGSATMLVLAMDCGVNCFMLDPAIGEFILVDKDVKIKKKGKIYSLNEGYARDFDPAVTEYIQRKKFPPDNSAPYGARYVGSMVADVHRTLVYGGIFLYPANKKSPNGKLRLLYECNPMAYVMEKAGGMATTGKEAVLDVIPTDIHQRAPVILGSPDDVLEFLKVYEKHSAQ
Put plainly: Inhibition of human liver FBPase.

Another assay concerns Rattus norvegicus. Put plainly: Antidiabetic activity in rat assessed as reduction of blood glucose level at 10 mg/kg, iv relative to control. Type of assay: functional. The arrangement: scale not given: the % may be the effect or the level left.
For assay [2], the target named is T2, Fructose-1,6-bisphosphatase 1 (Rattus norvegicus, UniProt P19112).
T2 sequence (P19112 whole entry): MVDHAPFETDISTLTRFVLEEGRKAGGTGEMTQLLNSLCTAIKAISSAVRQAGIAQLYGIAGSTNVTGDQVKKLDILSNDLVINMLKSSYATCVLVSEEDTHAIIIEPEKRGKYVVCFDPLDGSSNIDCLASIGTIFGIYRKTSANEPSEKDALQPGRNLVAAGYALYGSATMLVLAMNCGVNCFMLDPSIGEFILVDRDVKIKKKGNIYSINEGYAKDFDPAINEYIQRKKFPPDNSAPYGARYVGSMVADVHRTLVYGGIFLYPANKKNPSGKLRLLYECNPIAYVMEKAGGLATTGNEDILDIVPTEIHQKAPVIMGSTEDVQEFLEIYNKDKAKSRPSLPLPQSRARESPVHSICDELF
Put plainly: Inhibition of rat liver FBPase.

As to `CC(C)Cc1oc(C(C)C)nc1-c1ccc(P(=O)(O)O)o1`, in assay [1], the concentration for half-maximal inhibition (IC50) turned out to be 2200 nM.
Turning to `CC(C)OC(=O)c1oc(N)nc1-c1ccc(P(=O)(O)O)o1`, half-maximal inhibition in assay [1] (IC50) required 40 nM. Further, the Activity with Rattus norvegicus was 7%.
With `CC(C)(C)Sc1oc(N)nc1-c1ccc(P(=O)(O)O)o1`, the concentration for half-maximal inhibition (IC50) in assay [1] is 120 nM; in assay [2], 1700 nM.
Turning to `Nc1nc(-c2ccc(P(=O)(O)O)o2)co1`, in assay [1], the IC50 was 10000 nM.
Take `CCCCc1oc(N)nc1-c1ccc(P(=O)(O)O)o1`: the IC50 in assay [1] amounted to 170 nM; in assay [2], 2300 nM. Moreover, in the assay with Rattus norvegicus, the Activity was 10%.
With `CCCCCc1oc(N)nc1-c1ccc(P(=O)(O)O)o1`, the IC50 in assay [1] came to 210 nM; in assay [2], 2700 nM. Further, the Activity in the assay on Rattus norvegicus is 7%.
For the molecule `CNc1nc(-c2ccc(P(=O)(O)O)o2)c(CC(C)C)o1`, in assay [1], inhibition was half-maximal at 4300 nM (IC50).
Regarding `CC(C)Sc1oc(N)nc1-c1ccc(P(=O)(O)O)o1`, the IC50 was found to be 110 nM in assay [1] and 900 nM in assay [2]. Moreover, in the assay with Rattus norvegicus, the Activity was 61%.
Turning to `Nc1nc(-c2ccc(P(=O)(O)O)o2)c(-c2ccccc2)o1`, the half-inhibitory concentration (IC50) in assay [1] was found to be 160 nM; in assay [2], 2500 nM. In the assay with Rattus norvegicus, the Activity is 8%.
For `CC(C)(C)C(=O)c1oc(N)nc1-c1ccc(P(=O)(O)O)o1`, the IC50 in assay [1] is 855 nM.
For the molecule `COC(=O)c1oc(N)nc1-c1ccc(P(=O)(O)O)o1`, the IC50 in assay [1] worked out at 67 nM; in assay [2] it was 3900 nM. Moreover, the Activity in the assay with Rattus norvegicus turned out to be 0%.
In turn, `CCCCCc1oc(N)nc1C(=O)OCP(=O)(O)O` returned an IC50 in assay [1] of 350 nM.
Consider `CCSC(=O)c1oc(N)nc1-c1ccc(P(=O)(O)O)o1`, for which the IC50 in assay [1] was found to be 30 nM; in assay [2] it was 2300 nM. In addition, the Activity with Rattus norvegicus is given as 51%.
With `CCOC(=O)c1oc(N)nc1-c1ccc(P(=O)(O)O)o1`, in the assay on Rattus norvegicus, the Activity is listed as 18%.
Turning to `Cc1nc(C(=O)OCP(=O)(O)O)c(C(F)(F)F)o1`, half-maximal inhibition in assay [1] (IC50) required 10000 nM.
With `CC(C)c1oc(N)nc1C(=O)OCP(=O)(O)O`, 580 nM corresponded to half-maximal inhibition in assay [1] (IC50).
Molecule `Nc1nc(C(=O)OCP(=O)(O)O)co1` yielded an IC50 in assay [1] of 7000 nM.
`CCc1oc(N)nc1C(=O)OCP(=O)(O)O` registered an IC50 in assay [1] of 380 nM.
With `Nc1nc(-c2ccc(P(=O)(O)O)o2)c(Cc2ccccc2)o1`, the IC50 in assay [1] amounted to 900 nM; in assay [2], 10000 nM.
`CNC(=O)c1oc(N)nc1-c1ccc(P(=O)(O)O)o1` had an IC50 in assay [1] of 1000 nM. Also, the Activity in the assay on Rattus norvegicus came out at 0%.
As for `Nc1nc(-c2ccc(P(=O)(O)O)o2)c(C(=O)OCc2ccccc2)o1`, the half-maximal inhibitory concentration (IC50) in assay [1] was 85 nM; in assay [2], 2250 nM. The Activity in the assay with Rattus norvegicus worked out at 0%.
`Cc1oc(N)nc1C(=O)OCP(=O)(O)O` displayed a 50% inhibitory concentration (IC50) in assay [1] of 420 nM.
For the molecule `CCCSc1oc(N)nc1-c1ccc(P(=O)(O)O)o1`, the Activity with Rattus norvegicus is 61%.
For the molecule `CCc1nc(-c2ccc(P(=O)(O)O)o2)c(CC(C)C)o1`, the concentration for half-maximal inhibition (IC50) in assay [1] worked out at 950 nM.
With `CC(C)Cc1oc(N(C)C)nc1-c1ccc(P(=O)(O)O)o1`, the IC50 in assay [1] was determined as 2100 nM.
On the same count and under the same terms, with `O=C(OCP(=O)(O)O)c1ncoc1-c1ccccc1` the figure was 10000 nM; with `Nc1nc(-c2ccc(P(=O)(O)O)o2)c(Sc2ccccc2)o1`, 4000 nM; with `CCCc1oc(N)nc1C(=O)OCP(=O)(O)O`, 280 nM.
Molecule `CC(C)Cc1ocnc1-c1ccc(P(=O)(O)O)o1` gave a 50% inhibitory concentration (IC50) in assay [1] of 1900 nM.
Same read-out and setting: in the case of `C=Cc1nc(-c2ccc(P(=O)(O)O)o2)c(CC(C)C)o1` it was 6700 nM.
With `CC(C)Cc1oc(O)nc1-c1ccc(P(=O)(O)O)o1`, in assay [1], the half-maximal inhibitory concentration (IC50) is 10000 nM.
In the case of `CCCCc1oc(N)nc1C(=O)OCP(=O)(O)O`, the results for the IC50 in assay [1] and in assay [2] were 250 nM and 1700 nM, respectively. For the same molecule, the Activity in the assay with Rattus norvegicus stood at 22%.
Consider `C=CCc1oc(N)nc1-c1ccc(P(=O)(O)O)o1`, for which the concentration for half-maximal inhibition (IC50) in assay [1] came out at 140 nM; in assay [2] it was 3000 nM. Further, in the assay with Rattus norvegicus, the Activity was found to be 19%.
As to `Nc1nc(-c2ccc(P(=O)(O)O)o2)c(CC2CCCCC2)o1`, the IC50 is 320 nM in assay [1] and 5500 nM in assay [2].
In the case of `Nc1nc(-c2ccc(P(=O)(O)O)o2)c(Cc2cccs2)o1`, the 50% inhibitory concentration (IC50) in assay [1] amounted to 260 nM; in assay [2], 3750 nM.
`CC(C)Cc1oc(N)nc1-c1ccc(P(=O)(O)O)o1`: the Activity in the assay on Rattus norvegicus was found to be 51%.
Molecule `CCNc1nc(-c2ccc(P(=O)(O)O)o2)c(CC(C)C)o1` yielded a concentration for half-maximal inhibition (IC50) in assay [1] of 10000 nM.

The values above are taken from ChEMBL document CHEMBL3217432, “Oxazole phosphonic acids as fructose 1,6-bisphosphatase inhibitors with potent glucose-lowering activity” (Medchemcomm, 2011).
